Measured values from patent publication US9221809B2 (MERCK SHARP & DOHME CORP., priority 2011, dated 2015).

Biological target: IRAK4 (Homo sapiens (Human), UniProt Q9NWZ3)
Assay: IRAK4 kinase activity, IMAP fluorescence polarization assay
Assay type: biochemical
Conditions: 100 μM ATP; read-out: IRAK4 IC50
Method in brief: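 GST-tagged IRAK4 at 0.5 nM phosphorylates 100 nM fluorescent peptide substrate with 100 μM ATP in pH 7.2 Tris buffer containing MgCl2, DTT and Tween 20, 30 min at 25 °C. Reaction stopped with IMAP binding reagent; phosphorylation read as increased fluorescence polarization.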

Sequence of IRAK4 (Q9NWZ3 whole entry): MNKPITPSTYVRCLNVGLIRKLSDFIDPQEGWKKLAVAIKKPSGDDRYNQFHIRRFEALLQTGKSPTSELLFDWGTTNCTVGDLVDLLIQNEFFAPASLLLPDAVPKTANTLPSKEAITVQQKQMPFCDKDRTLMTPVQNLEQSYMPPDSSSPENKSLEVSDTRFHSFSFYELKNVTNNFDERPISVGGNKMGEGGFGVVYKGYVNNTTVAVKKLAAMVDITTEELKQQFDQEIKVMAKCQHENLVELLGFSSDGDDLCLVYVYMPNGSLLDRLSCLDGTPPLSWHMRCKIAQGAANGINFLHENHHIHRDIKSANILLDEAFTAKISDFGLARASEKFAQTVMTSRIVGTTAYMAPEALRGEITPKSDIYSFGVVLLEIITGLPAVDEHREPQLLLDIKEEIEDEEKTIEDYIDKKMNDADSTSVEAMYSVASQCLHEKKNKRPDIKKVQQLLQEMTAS

SMILES | IC50 [nM]
O=c1[nH]c(N2CCN(c3ncc(C(F)(F)F)cc3Cl)CC2)nc(N[C@@H]2CCCNC2)c1-c1nc2ccccc2s1 [Example 133, (R)-5-(benzo[d]thiazol-2-yl)-2-(4-(3-chloro-5-(trifluoromethyl)pyridin-2-yl)piperazin-1-yl)-6-(piperidin-3-ylamino)pyrimidin-4(3H)-one] | 17
O=c1[nH]c(N2CCN(c3cnccn3)CC2)nc(N[C@@H]2CCCNC2)c1-c1nc2ccccc2s1 [Example 134, (R)-5-(benzo[d]thiazol-2-yl)-6-(piperidin-3-ylamino)-2-(4-(pyrazin-2-yl)piperazin-1-yl)pyrimidin-4(3H)-one] | 8
O=c1[nH]c(N2CCN(c3ccc(C(F)(F)F)cn3)CC2)nc(N[C@@H]2CCCNC2)c1-c1nc2ccccc2s1 [Example 135, (R)-5-(benzo[d]thiazol-2-yl)-6-(piperidin-3-ylamino)-2-(4-(5-(trifluoromethyl)pyridin-2-yl)piperazin-1-yl)pyrimidin-4(3H)-one] | 11
O=c1[nH]c(N2CCN(c3ncccn3)CC2)nc(N[C@@H]2CCCNC2)c1-c1nc2ccccc2s1 [Example 136, (R)-5-(benzo[d]thiazol-2-yl)-6-(piperidin-3-ylamino)-2-(4-(pyrimidin-2-yl)piperazin-1-yl)pyrimidin-4(3H)-one] | 10
O=c1[nH]c(N2CCN(c3cccc(Cl)n3)CC2)nc(N[C@@H]2CCCNC2)c1-c1nc2ccccc2s1 [Example 137, (R)-5-(benzo[d]thiazol-2-yl)-2-(4-(6-chloropyridin-2-yl)piperazin-1-yl)-6-(piperidin-3-ylamino)pyrimidin-4(3H)-one] | 25
O=c1[nH]c(N2CCN(c3cccnc3)CC2)nc(N[C@@H]2CCCNC2)c1-c1nc2ccccc2s1 [Example 138, (R)-5-(benzo[d]thiazol-2-yl)-6-(piperidin-3-ylamino)-2-(4-(pyridin-3-yl)piperazin-1-yl)pyrimidin-4(3H)-one] | 6
Cc1nonc1N1CCN(c2nc(N[C@@H]3CCCNC3)c(-c3nc4ccccc4s3)c(=O)[nH]2)CC1 [Example 139, (R)-5-(benzo[d]thiazol-2-yl)-2-(4-(4-methyl-1,2,5-oxadiazol-3-yl)piperazin-1-yl)-6-(piperidin-3-ylamino)pyrimidin-4(3H)-one] | 15
O=c1[nH]c(N2CCn3cc(C(F)(F)F)nc3C2)nc(N[C@@H]2CCCNC2)c1-c1nc2ccccc2s1 [Example 140, (R)-5-(benzo[d]thiazol-2-yl)-6-(piperidin-3-ylamino)-2-(2-(trifluoromethyl)-5,6-dihydroimidazo[1,2-a]pyrazin-7(8H)-yl)pyrimidin-4(3H)-one] | 113
COc1ccc(N2CCN(c3nc(N[C@@H]4CCCNC4)c(-c4nc5ccccc5s4)c(=O)[nH]3)CC2)nc1 [Example 141, (R)-5-(benzo[d]thiazol-2-yl)-2-(4-(5-methoxypyridin-2-yl)piperazin-1-yl)-6-(piperidin-3-ylamino)pyrimidin-4(3H)-one] | 5
COc1ccnc(N2CCN(c3nc(N[C@@H]4CCCNC4)c(-c4nc5ccccc5s4)c(=O)[nH]3)CC2)c1 [Example 142, (R)-5-(benzo[d]thiazol-2-yl)-2-(4-(4-methoxypyridin-2-yl)piperazin-1-yl)-6-(piperidin-3-ylamino)pyrimidin-4(3H)-one] | 6
COc1cccc(N2CCN(c3nc(N[C@@H]4CCCNC4)c(-c4nc5ccccc5s4)c(=O)[nH]3)CC2)n1 [Example 143, (R)-5-(benzo[d]thiazol-2-yl)-2-(4-(6-methoxypyridin-2-yl)piperazin-1-yl)-6-(piperidin-3-ylamino)pyrimidin-4(3H)-one] | 10
O=c1[nH]c(N2CCN(c3ccc(Cl)cn3)CC2)nc(N[C@@H]2CCCNC2)c1-c1nc2ccccc2s1 [Example 144, (R)-5-(benzo[d]thiazol-2-yl)-2-(4-(5-chloropyridin-2-yl)piperazin-1-yl)-6-(piperidin-3-ylamino)pyrimidin-4(3H)-one] | 8
O=c1[nH]c(N2CCN(c3cc(Cl)ccn3)CC2)nc(N[C@@H]2CCCNC2)c1-c1nc2ccccc2s1 [Example 145, (R)-5-(benzo[d]thiazol-2-yl)-2-(4-(4-chloropyridin-2-yl)piperazin-1-yl)-6-(piperidin-3-ylamino)pyrimidin-4(3H)-one] | 9
O=c1[nH]c(N2CCN(c3ccccc3F)CC2)nc(N[C@@H]2CCCNC2)c1-c1nc2ccccc2s1 [Example 146, (R)-5-(benzo[d]thiazol-2-yl)-2-(4-(2-fluorophenyl)piperazin-1-yl)-6-(piperidin-3-ylamino)pyrimidin-4(3H)-one] | 16
CS(=O)(=O)c1ccc(N2CCN(c3nc(N[C@@H]4CCCNC4)c(-c4nc5ccccc5s4)c(=O)[nH]3)CC2)c(Cl)c1 [Example 147, (R)-5-(benzo[d]thiazol-2-yl)-2-(4-(2-chloro-4-(methylsulfonyl)phenyl)piperazin-1-yl)-6-(piperidin-3-ylamino)pyrimidin-4(3H)-one] | 11
O=c1[nH]c(N2CCN(c3ccccc3C(F)(F)F)CC2)nc(N[C@@H]2CCCNC2)c1-c1nc2ccccc2s1 [Example 148, (R)-5-(benzo[d]thiazol-2-yl)-6-(piperidin-3-ylamino)-2-(4-(2-(trifluoromethyl)phenyl)piperazin-1-yl)pyrimidin-4(3H)-one] | 45
O=c1[nH]c(N2CCN(c3nccs3)CC2)nc(N[C@@H]2CCCNC2)c1-c1nc2ccccc2s1 [Example 149, (R)-5-(benzo[d]thiazol-2-yl)-6-(piperidin-3-ylamino)-2-(4-(thiazol-2-yl)piperazin-1-yl)pyrimidin-4(3H)-one] | 12
CS(=O)(=O)c1cc(F)ccc1N1CCN(c2nc(N[C@@H]3CCCNC3)c(-c3nc4ccccc4s3)c(=O)[nH]2)CC1 [Example 150, (R)-5-(benzo[d]thiazol-2-yl)-2-(4-(4-fluoro-2-(methylsulfonyl)phenyl)piperazin-1-yl)-6-(piperidin-3-ylamino)pyrimidin-4(3H)-one] | 14
O=c1[nH]c(N2CCN(c3ccccc3Cl)CC2)nc(N[C@@H]2CCCNC2)c1-c1nc2ccccc2s1 [Example 151, (R)-5-(benzo[d]thiazol-2-yl)-2-(4-(2-chlorophenyl)piperazin-1-yl)-6-(piperidin-3-ylamino)pyrimidin-4(3H)-one] | 27
O=c1[nH]c(N2CCN(c3cccc(C(F)(F)F)c3)CC2)nc(N[C@@H]2CCCNC2)c1-c1nc2ccccc2s1 [Example 152, (R)-5-(benzo[d]thiazol-2-yl)-6-(piperidin-3-ylamino)-2-(4-(3-(trifluoromethyl)phenyl)piperazin-1-yl)pyrimidin-4(3H)-one] | 42
O=c1[nH]c(N2CCN(c3ccc(Cl)c(Cl)c3)CC2)nc(N[C@@H]2CCCNC2)c1-c1nc2ccccc2s1 [Example 153, (R)-5-(benzo[d]thiazol-2-yl)-2-(4-(3,4-dichlorophenyl)piperazin-1-yl)-6-(piperidin-3-ylamino)pyrimidin-4(3H)-one] | 57
COc1ccc(N2CCN(c3nc(N[C@@H]4CCCNC4)c(-c4nc5ccccc5s4)c(=O)[nH]3)CC2)cc1 [Example 154, (R)-5-(benzo[d]thiazol-2-yl)-2-(4-(4-methoxyphenyl)piperazin-1-yl)-6-(piperidin-3-ylamino)pyrimidin-4(3H)-one] | 10
O=c1[nH]c(N2CCN(c3ccc4c(c3)OCO4)CC2)nc(N[C@@H]2CCCNC2)c1-c1nc2ccccc2s1 [Example 155, (R)-2-(4-(benzo[d][1,3]dioxol-5-yl)piperazin-1-yl)-5-(benzo[d]thiazol-2-yl)-6-(piperidin-3-ylamino)pyrimidin-4(3H)-one] | 11
CS(=O)(=O)c1ccccc1N1CCN(c2nc(N[C@@H]3CCCNC3)c(-c3nc4ccccc4s3)c(=O)[nH]2)CC1 [Example 156, (R)-5-(benzo[d]thiazol-2-yl)-2-(4-(2-(methylsulfonyl)phenyl)piperazin-1-yl)-6-(piperidin-3-ylamino)pyrimidin-4(3H)-one] | 9
Cc1cc(N2CCN(c3nc(N[C@@H]4CCCNC4)c(-c4nc5ccccc5s4)c(=O)[nH]3)CC2)sn1 [Example 157, (R)-5-(benzo[d]thiazol-2-yl)-2-(4-(3-methylisothiazol-5-yl)piperazin-1-yl)-6-(piperidin-3-ylamino)pyrimidin-4(3H)-one] | 8
Cc1cnccc1N1CCN(c2nc(N[C@@H]3CCCNC3)c(-c3nc4ccccc4s3)c(=O)[nH]2)CC1 [Example 158, (R)-5-(benzo[d]thiazol-2-yl)-2-(4-(3-methylpyridin-4-yl)piperazin-1-yl)-6-(piperidin-3-ylamino)pyrimidin-4(3H)-one] | 8
Cn1cc(N2CCN(c3nc(N[C@@H]4CCCNC4)c(-c4nc5ccccc5s4)c(=O)[nH]3)CC2)cn1 [Example 159, (R)-5-(benzo[d]thiazol-2-yl)-2-(4-(1-methyl-1H-pyrazol-4-yl)piperazin-1-yl)-6-(piperidin-3-ylamino)pyrimidin-4(3H)-one] | 20
Cc1cnc(C)c(N2CCN(c3nc(N[C@@H]4CCCNC4)c(-c4nc5ccccc5s4)c(=O)[nH]3)CC2)n1 [Example 160, (R)-5-(benzo[d]thiazol-2-yl)-2-(4-(3,6-dimethylpyrazin-2-yl)piperazin-1-yl)-6-(piperidin-3-ylamino)pyrimidin-4(3H)-one] | 22
COc1ccc(OC)c(N2CCN(c3nc(N[C@@H]4CCCNC4)c(-c4nc5ccccc5s4)c(=O)[nH]3)CC2)c1 [Example 161, (R)-5-(benzo[d]thiazol-2-yl)-2-(4-(2,5-dimethoxyphenyl)piperazin-1-yl)-6-(piperidin-3-ylamino)pyrimidin-4(3H)-one] | 14
O=c1[nH]c(N2CCN(c3nnc(C4CC4)o3)CC2)nc(N[C@@H]2CCCNC2)c1-c1nc2ccccc2s1 [Example 162, (R)-5-(benzo[d]thiazol-2-yl)-2-(4-(5-cyclopropyl-1,3,4-oxadiazol-2-yl)piperazin-1-yl)-6-(piperidin-3-ylamino)pyrimidin-4(3H)-one] | 27
